Results: patent US12708627B2, “Combination therapy for VAV3 cancer” (Children's Hospital Medical Center, priority 2021, dated 2026)
Entries after “also recorded” stand apart in the source; their conditions may differ.

What was measured:
[1] = tested on: VAV3−/− p190-BCR-ABL1 leukemic cells expressing N369A VAV3; experiment: VAV3 rescue: cell cycle and colony formation, N369A GEF-deficient mutant; format: cell-based, murine; details: up to 10 μM
From the text: (FIG. 5A) Schematic of domain architecture of full-length, ΔCH and GEF-mutant VAV3; calponin-homology (CH), acidic region (Ac), Dbl-homology (DH), pleckstrin-homology (PH), zinc finger (ZF), SRC-homology 2 and 3 (SH2/SH3). Black circle and star indicate Y173 and N369, respectively.
Re-introducing full-length or ΔCH VAV3 results in similar number of colonies as with wild-type BM leukemic cells (black bars, mean of 200.3 and 183.3 vs 188.3, respectively), a 3-fold increase from VAV3^−/− leukemic cells expressing the empty vector (mean=64.3 colonies).
For VAV3 rescue experiments, low density bone marrow cells from wild-type (VAV3^+/+) or VAV3^−/− mice were transduced with bicistronic retroviral vector encoding p190 BCR-ABL1-IRES-YFP and sorted for YFP^+ 48 h post-transduction. Cells were then transduced with lentiviral particles encoding either empty vector, full-length WT or mutant VAV3 (pCDH1-MCS1-EF1-copGFP). […] Cell cycle was analyzed at 18 h post BrdU incorporation.

[2] = tested on: wild-type p190-BCR-ABL1 leukemia; experiment: Wild-type (VAV3+/+) p190-BCR-ABL1 leukemic mice, osmotic pump; details: for leukemic progenitors in peripheral blood: vehicle 23.8%
[3] = tested on: CD34+ human peripheral blood mononuclear cells transduced with p190-BCR-ABL1; experiment: Proliferation and survival of CD34+ cells transduced with p190-BCR-ABL1; format: cell-based; details: SEM, N=3
[4] = molecular target: p190-BCR-ABL1 (Homo sapiens, UniProt P00519); experiment: p190-BCR-ABL1 phosphotyrosine level by immunoprecipitation and immunoblotting; details: 3 μM, 4 h, p190-BCR-ABL1-Ba/F3 cells
Chain of p190-BCR-ABL1 (P00519 with tags, fused parts or gaps): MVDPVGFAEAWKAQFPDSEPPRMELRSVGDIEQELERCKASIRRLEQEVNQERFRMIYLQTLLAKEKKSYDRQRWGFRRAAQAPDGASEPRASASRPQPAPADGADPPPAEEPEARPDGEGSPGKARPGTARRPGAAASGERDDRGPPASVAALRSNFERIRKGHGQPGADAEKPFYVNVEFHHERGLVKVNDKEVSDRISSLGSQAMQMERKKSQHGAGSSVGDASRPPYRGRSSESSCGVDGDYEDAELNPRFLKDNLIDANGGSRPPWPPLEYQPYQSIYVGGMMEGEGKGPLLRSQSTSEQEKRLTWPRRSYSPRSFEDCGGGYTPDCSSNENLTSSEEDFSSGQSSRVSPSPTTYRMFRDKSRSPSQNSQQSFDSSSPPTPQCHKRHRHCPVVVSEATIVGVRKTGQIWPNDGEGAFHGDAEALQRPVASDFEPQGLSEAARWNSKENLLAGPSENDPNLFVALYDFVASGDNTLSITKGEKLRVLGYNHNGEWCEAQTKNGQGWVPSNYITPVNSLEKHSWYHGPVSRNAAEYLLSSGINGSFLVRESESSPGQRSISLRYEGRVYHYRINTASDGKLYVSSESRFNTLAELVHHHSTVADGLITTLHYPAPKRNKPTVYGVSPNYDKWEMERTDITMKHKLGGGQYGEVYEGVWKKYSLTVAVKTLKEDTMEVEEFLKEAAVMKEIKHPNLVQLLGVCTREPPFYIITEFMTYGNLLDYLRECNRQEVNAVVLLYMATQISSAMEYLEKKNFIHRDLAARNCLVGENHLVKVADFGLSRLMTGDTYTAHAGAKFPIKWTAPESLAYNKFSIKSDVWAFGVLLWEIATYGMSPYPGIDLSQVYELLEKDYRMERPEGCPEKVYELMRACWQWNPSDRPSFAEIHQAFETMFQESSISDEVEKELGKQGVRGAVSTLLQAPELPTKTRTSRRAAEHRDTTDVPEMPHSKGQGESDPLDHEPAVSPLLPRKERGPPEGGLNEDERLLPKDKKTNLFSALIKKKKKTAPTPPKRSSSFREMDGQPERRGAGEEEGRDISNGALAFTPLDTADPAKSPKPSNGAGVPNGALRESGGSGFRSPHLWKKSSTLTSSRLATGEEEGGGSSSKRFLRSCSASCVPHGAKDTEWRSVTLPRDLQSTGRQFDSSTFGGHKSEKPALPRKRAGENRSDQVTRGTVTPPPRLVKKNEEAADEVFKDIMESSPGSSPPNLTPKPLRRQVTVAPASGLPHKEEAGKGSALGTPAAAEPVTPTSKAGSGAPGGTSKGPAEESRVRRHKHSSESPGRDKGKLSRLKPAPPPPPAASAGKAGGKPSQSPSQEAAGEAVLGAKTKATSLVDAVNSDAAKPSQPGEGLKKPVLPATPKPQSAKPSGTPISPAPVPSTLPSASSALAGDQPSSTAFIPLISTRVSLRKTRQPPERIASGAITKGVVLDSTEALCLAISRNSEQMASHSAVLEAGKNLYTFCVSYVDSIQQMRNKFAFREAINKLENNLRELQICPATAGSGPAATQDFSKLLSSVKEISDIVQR

[5] = molecular target: T1, VAV3 (Homo sapiens, UniProt Q9UKW4); experiment: Phosphorylated VAV3 (pY173) immunoblot in MDA-MB-231 cells; format: cell-based; parameters: these cells express high endogenous levels of VAV3; endogenous in cells; host or cells: MDA-MB-231; details: 3 μM, 15 min
T1 sequence (Q9UKW4 1-847): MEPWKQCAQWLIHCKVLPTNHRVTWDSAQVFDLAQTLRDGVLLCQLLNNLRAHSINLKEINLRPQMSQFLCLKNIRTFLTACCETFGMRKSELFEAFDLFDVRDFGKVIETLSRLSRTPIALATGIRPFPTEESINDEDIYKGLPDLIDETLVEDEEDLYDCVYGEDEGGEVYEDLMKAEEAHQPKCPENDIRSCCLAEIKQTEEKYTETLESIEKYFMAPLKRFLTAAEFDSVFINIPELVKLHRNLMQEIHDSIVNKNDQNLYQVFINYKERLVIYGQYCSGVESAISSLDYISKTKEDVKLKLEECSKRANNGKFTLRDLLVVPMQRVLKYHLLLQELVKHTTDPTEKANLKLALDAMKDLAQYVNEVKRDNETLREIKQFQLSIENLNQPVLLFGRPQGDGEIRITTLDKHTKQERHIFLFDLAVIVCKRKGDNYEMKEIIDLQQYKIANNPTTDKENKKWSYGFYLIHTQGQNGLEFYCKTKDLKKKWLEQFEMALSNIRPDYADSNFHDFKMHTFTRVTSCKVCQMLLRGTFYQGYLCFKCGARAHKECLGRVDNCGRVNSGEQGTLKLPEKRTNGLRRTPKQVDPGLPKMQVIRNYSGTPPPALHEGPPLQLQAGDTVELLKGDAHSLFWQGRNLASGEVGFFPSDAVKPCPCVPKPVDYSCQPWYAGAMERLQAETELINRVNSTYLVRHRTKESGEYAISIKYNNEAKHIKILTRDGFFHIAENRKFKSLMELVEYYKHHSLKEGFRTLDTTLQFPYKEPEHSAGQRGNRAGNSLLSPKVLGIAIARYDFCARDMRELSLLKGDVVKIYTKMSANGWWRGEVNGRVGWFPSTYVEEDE

[6] = tested on: p190-BCR-ABL1 leukemic propagating activity; experiment: Serial transplantation of bone marrow from treated leukemic mice into secondary recipients; details: 5 weeks post transplantation, 10^6-cell dilution
[7] = tested on: JNK, PAK1, AKT, STAT3 phosphorylation; experiment: Phospho-flow cytometry of BM cells from treated wild-type leukemic mice; format: in vivo; details: BM cells from one-week treated mice
From the text: N=5 mice per treatment group.
To test this hypothesis, Applicant studied by phospho-flow cytometry the activity of several effectors in BM cells from one-week treated mice.

[8] = tested on: Cdc42; experiment: Active Cdc42 pull-down with GST-PAK-GBD in p190-BCR-ABL1 Ba/F3 cells; format: cell-based; details: 3 μM
From the text: (§1) GAPDH was used as loading control.

[9] = tested on: empty vector (Mieg3)-expressing Ba/F3 cells; experiment: Survival of empty vector Ba/F3 cells, trypan blue exclusion; format: cell-based, murine
From the text: Ba/F3 cells are bone marrow-derived, IL-3 dependent, murine pro-B cells widely used in studying the mechanism of leukemia initiation and progression and targeted therapy discovery^1. NALM-1 are human lymphoblastic cells that express p190-BCR-ABL1 but not Ikaros (IKZF1)^2. Applicant treated Ba/F3 cells transduced with retrovirus encoding either p190- or p210-BCR-ABL1 or Mieg3 empty vector^3 control as before.
MDA-MB-231 cells were maintained in IMEM (Invitrogen) supplemented with 10% FBS, 1% penicillin/streptomycin, and 1% amphotericin B. Ba/F3 cells were cultured in RPMI (GIBCO) supplemented with 10% FBS and IL-3 (10 ng/ml), NALM-1 cells were maintained in RPMI supplemented with 15% FBS. HEK293T cells were maintained with DMEM supplemented with 10% FBS and 1% penicillin/streptomycin. All cell lines were cultured at 37° C. in a 5% CO2 humidified incubator. Cell viability was assessed by trypan blue exclusion assay as previously described^4. Cytokines were from Peprotech.

[10] = tested on: pPAK1/2 (T423/T402) and pBAD (S136) in p190-BCR-ABL1 expressing Ba/F3 cells; experiment: Kinetics of PAK1/2 and BAD dephosphorylation by immunoblot; format: cell-based, murine; details: 3 μM, early time points
Procedure: as §1
To determine the kinetics of IODVA1-promoted effector dephosphorylation, Applicant focused on the activity of the RAC pro-survival effectors PAK1/2 and the RAC pro-apoptotic member of the Bcl-2 family, BAD, a mediator of aggressive BCR-ABL1-expressing leukemia^10,11. […] The observed difference in deactivation times, i.e. 15 vs. 5 min, is likely due to the difference and sensitivity of the techniques used to detect the activation state of these proteins, e.g. pull-down followed by immunoblotting vs. direct immunoblotting.

SMILES: OC1(c2ccccc2)NC(=Nc2nc3ccccc3[nH]2)N=C1c1ccccn1 (stereo not shown) [IODVA1]
- sensitivity to IODVA1, cell cycle and colony formation [1]: did not re-sensitize; also recorded: insensitive
- survival ([2]; IODVA1 1 mM, one pump, treatment day 21 to day 35): 60 days
- leukemic progenitors in peripheral blood ([2]; after one week of treatment): 5%
- leukemic progenitors in peripheral blood ([2]; after two weeks of treatment): 2%
- survival after treatment has ended ([2]; treatment ended by day 35): 25 days
- survival by trypan blue exclusion ([3]; 1 μM, day 5): 60±16%
- survival by trypan blue exclusion ([3]; 3 μM, day 3): 1±0.2%
- phosphorylation level of p190-BCR-ABL1 [4]: did not affect
- phosphorylated VAV3 (pY173) signal [5]: significant decrease
- EGFP+/B220+ leukemic B-cells in peripheral blood [6]: 4.2±0.7%
- phosphorylation levels of JNK and PAK1 [7]: severely reduced
- phosphorylation levels of AKT and STAT3 ([7]; wild-type leukemia): unaffected
- decrease of levels of active Cdc42 ([8]; 15 min): 60%
- inhibition of active Cdc42 ([8]; 30 min incubation): totally inhibits
- viability ([9]; 3 μM, day 1): not affected
- reduction of survival ([9]; 20 μM): 25.5%
- survival ([9]; up to 5 μM): not affected
- BAD S136 phosphorylation [10]: decreased BAD S136 phosphorylation beyond the 15 min time point
- phosphorylation of PAK1/2 T423/T402 [10]: decreases sharply beyond the 5 min treatment time
